Experimental data reported in patent publication US11076595B2, “1-(n,n-disubstituted carbamoyl) 4-(substituted sulfonyl)triazolin-5-one derivative, 4-(n,n-disubstituted carbamoyl) 1-(substituted sulfonyl)triazolin-5-one derivative, and herbicide containing said derivative as active ingredient” (HOKKO CHEMICAL INDUSTRY CO., LTD., priority 2017, dated 2021).

Tests used:
Format in all cases: in vivo
Echinochloa crus-galli [1] = experiment: Test Example 1: herbicidal effect test by soil treatment in paddy field; conditions: 120 g/10a, paddy soil treatment just after sowing, 14 days after treatment
Outline: (§1)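 Pre-emergence paddy soil treatment: diluted emulsifiable concentrate, 120 g active ingredient/10 are, applied dropwise into ~3 cm flood water immediately post-sowing. Two replicates; dry-weight-based suppression % vs untreated, day 14, glasshouse.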

Lindernia pyxidaria [2] = experiment: as above; conditions: 120 g/10a, paddy soil treatment just after sowing, 14 days after treatment
Outline: as §1

Monochoria vaginalis [3] = experiment: as above; conditions: 120 g/10a, paddy soil treatment just after sowing, 14 days after treatment
Outline: as §1

Scirpus juncoides [4] = experiment: as above; conditions: 120 g/10a, paddy soil treatment just after sowing, 14 days after treatment
Outline: as §1

Echinochloa crus-galli [5] = experiment: Test Example 2: herbicidal effect test by treatment during growing period in paddy field; conditions: treatment 7 days after sowing, 120 g/10a, evaluated 14 days after treatment
Outline: (§2)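 Paddy soil in flooded pots (~3 cm water), 30 seeds per species sown 0–1 cm deep, greenhouse. Emulsifiable concentrate diluted in water and dripped into the water 7 days after sowing at 120 g a.i. per 10 are. Suppression (%) from dry weight vs untreated, 14 days post-treatment, two replicates.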

Lindernia pyxidaria [6] = experiment: as above; conditions: treatment 7 days after sowing, 120 g/10a, evaluated 14 days after treatment
Outline: as §2

Monochoria vaginalis [7] = experiment: as above; conditions: treatment 7 days after sowing, 120 g/10a, evaluated 14 days after treatment
Outline: as §2

Scirpus juncoides [8] = experiment: as above; conditions: treatment 7 days after sowing, 120 g/10a, evaluated 14 days after treatment
Outline: as §2

Amaranthus viridis [9] = experiment: Test Example 3: herbicidal effect test by soil treatment in upland field; conditions: upland field soil treatment 1 day after sowing; 120 g/10a; evaluated 14 days after treatment
Outline: (§3)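 Pots of alluvial field soil sown with 20 seeds per weed species; one day later emulsifiable concentrate diluted in water and sprayed on soil surface at 100 L per 10 are, 120 g active ingredient per 10 are. Suppression rate (%) from dry weight versus untreated plots after 14 days, two replicates.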

Chenopodium album [10] = experiment: as above; conditions: upland field soil treatment 1 day after sowing; 120 g/10a; evaluated 14 days after treatment
Outline: as §3

Echinochloa crus-galli [11] = experiment: as above; conditions: upland field soil treatment 1 day after sowing; 120 g/10a; evaluated 14 days after treatment
Outline: as §3

crabgrass [12] = experiment: as above; conditions: upland field soil treatment 1 day after sowing; 120 g/10a; evaluated 14 days after treatment
Outline: as §3

Amaranthus viridis [13] = experiment: Test Example 4: herbicidal effect test by foliage treatment in upland field; conditions: upland field foliage treatment 7 days after sowing; 120 g/10a; evaluated 14 days after treatment
Outline: (§4)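 In this upland pot test, each species is sown at 20 seeds per pot. Spraying follows one week later at a dose of 120 g active ingredient per 10 are. Weed suppression, calculated from average dry weights, is determined 14 days afterward.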

Chenopodium album [14] = experiment: as above; conditions: upland field foliage treatment 7 days after sowing; 120 g/10a; evaluated 14 days after treatment
Outline: as §4

Echinochloa crus-galli [15] = experiment: as above; conditions: upland field foliage treatment 7 days after sowing; 120 g/10a; evaluated 14 days after treatment
Outline: as §4

crabgrass [16] = experiment: as above; conditions: upland field foliage treatment 7 days after sowing; 120 g/10a; evaluated 14 days after treatment
Outline: as §4

Structure (SMILES): CC(C)N(C(=O)n1ncn(S(=O)(=O)C2CC2)c1=O)c1ccccc1F [Compound 1-169]
- weed suppression rate, Echinochloa crus-galli (Echinochloa crus-galli [1]): 100%
- weed suppression rate, Lindemia pyxidaria (Lindernia pyxidaria [2]): 90%
- weed suppression rate, Monochoria vaginalis (Monochoria vaginalis [3]): 90%
- weed suppression rate, Scirpus juncoides (Scirpus juncoides [4]): 90%
- weed suppression rate, Echinochloa crus-galli (Echinochloa crus-galli [5]): 100%
- weed suppression rate, Lindemia pyxidaria (Lindernia pyxidaria [6]): 80%
- weed suppression rate, Monochoria vaginalis (Monochoria vaginalis [7]): 90%
- weed suppression rate, Scirpus juncoides (Scirpus juncoides [8]): 80%
- herbicidal effect (weed suppression rate), Amaranthus viridis (Amaranthus viridis [9]): 90%
- herbicidal effect (weed suppression rate), Chenopodium album (Chenopodium album [10]): 80%
- herbicidal effect (weed suppression rate), Echinochloa crus-galli (Echinochloa crus-galli [11]): 80%
- herbicidal effect (weed suppression rate), Crabgrass (crabgrass [12]): 90%
- herbicidal effect (weed suppression rate), Amaranthus viridis (Amaranthus viridis [13]): 90%
- herbicidal effect (weed suppression rate), Chenopodium album (Chenopodium album [14]): 80%
- herbicidal effect (weed suppression rate), Echinochloa crus-galli (Echinochloa crus-galli [15]): 80%
- herbicidal effect (weed suppression rate), Crabgrass (crabgrass [16]): 90%

Structure (SMILES): CC(C)N(C(=O)n1ncn(S(=O)(=O)C2CC2)c1=O)c1ccc(Cl)nc1Cl [Compound 1-249]
- weed suppression rate, Echinochloa crus-galli (Echinochloa crus-galli [1]): 100%
- weed suppression rate, Lindemia pyxidaria (Lindernia pyxidaria [2]): 90%
- weed suppression rate, Monochoria vaginalis (Monochoria vaginalis [3]): 90%
- weed suppression rate, Scirpus juncoides (Scirpus juncoides [4]): 90%
- weed suppression rate, Echinochloa crus-galli (Echinochloa crus-galli [5]): 100%
- weed suppression rate, Lindemia pyxidaria (Lindernia pyxidaria [6]): 90%
- weed suppression rate, Monochoria vaginalis (Monochoria vaginalis [7]): 90%
- weed suppression rate, Scirpus juncoides (Scirpus juncoides [8]): 90%
- herbicidal effect (weed suppression rate), Amaranthus viridis (Amaranthus viridis [9]): 90%
- herbicidal effect (weed suppression rate), Chenopodium album (Chenopodium album [10]): 80%
- herbicidal effect (weed suppression rate), Echinochloa crus-galli (Echinochloa crus-galli [11]): 80%
- herbicidal effect (weed suppression rate), Crabgrass (crabgrass [12]): 90%
- herbicidal effect (weed suppression rate), Amaranthus viridis (Amaranthus viridis [13]): 90%
- herbicidal effect (weed suppression rate), Chenopodium album (Chenopodium album [14]): 80%
- herbicidal effect (weed suppression rate), Echinochloa crus-galli (Echinochloa crus-galli [15]): 80%
- herbicidal effect (weed suppression rate), Crabgrass (crabgrass [16]): 90%

Structure (SMILES): CC(C)N(C(=O)n1ncn(S(=O)(=O)C2CC2)c1=O)c1ccc(F)cc1Cl [Compound 1-214]
- weed suppression rate, Echinochloa crus-galli (Echinochloa crus-galli [1]): 90%
- weed suppression rate, Lindemia pyxidaria (Lindernia pyxidaria [2]): 80%
- weed suppression rate, Monochoria vaginalis (Monochoria vaginalis [3]): 80%
- weed suppression rate, Scirpus juncoides (Scirpus juncoides [4]): 90%
- weed suppression rate, Echinochloa crus-galli (Echinochloa crus-galli [5]): 90%
- weed suppression rate, Lindemia pyxidaria (Lindernia pyxidaria [6]): 80%
- weed suppression rate, Monochoria vaginalis (Monochoria vaginalis [7]): 80%
- weed suppression rate, Scirpus juncoides (Scirpus juncoides [8]): 90%
- herbicidal effect (weed suppression rate), Amaranthus viridis (Amaranthus viridis [9]): 90%
- herbicidal effect (weed suppression rate), Chenopodium album (Chenopodium album [10]): 80%
- herbicidal effect (weed suppression rate), Echinochloa crus-galli (Echinochloa crus-galli [11]): 80%
- herbicidal effect (weed suppression rate), Crabgrass (crabgrass [12]): 90%
- herbicidal effect (weed suppression rate), Amaranthus viridis (Amaranthus viridis [13]): 90%
- herbicidal effect (weed suppression rate), Chenopodium album (Chenopodium album [14]): 80%
- herbicidal effect (weed suppression rate), Echinochloa crus-galli (Echinochloa crus-galli [15]): 80%
- herbicidal effect (weed suppression rate), Crabgrass (crabgrass [16]): 90%

Structure (SMILES): CC(C)N(C(=O)n1ncn(S(=O)(=O)C2CCCCC2)c1=O)c1ccc(F)cc1 [Compound 1-298]
- weed suppression rate, Echinochloa crus-galli (Echinochloa crus-galli [1]): 90%
- weed suppression rate, Lindemia pyxidaria (Lindernia pyxidaria [2]): 90%
- weed suppression rate, Monochoria vaginalis (Monochoria vaginalis [3]): 80%
- weed suppression rate, Scirpus juncoides (Scirpus juncoides [4]): 90%
- weed suppression rate, Echinochloa crus-galli (Echinochloa crus-galli [5]): 90%
- weed suppression rate, Lindemia pyxidaria (Lindernia pyxidaria [6]): 90%
- weed suppression rate, Monochoria vaginalis (Monochoria vaginalis [7]): 90%
- weed suppression rate, Scirpus juncoides (Scirpus juncoides [8]): 90%
- herbicidal effect (weed suppression rate), Amaranthus viridis (Amaranthus viridis [9]): 90%
- herbicidal effect (weed suppression rate), Chenopodium album (Chenopodium album [10]): 80%
- herbicidal effect (weed suppression rate), Echinochloa crus-galli (Echinochloa crus-galli [11]): 80%
- herbicidal effect (weed suppression rate), Crabgrass (crabgrass [12]): 90%
- herbicidal effect (weed suppression rate), Amaranthus viridis (Amaranthus viridis [13]): 90%
- herbicidal effect (weed suppression rate), Chenopodium album (Chenopodium album [14]): 80%
- herbicidal effect (weed suppression rate), Echinochloa crus-galli (Echinochloa crus-galli [15]): 80%
- herbicidal effect (weed suppression rate), Crabgrass (crabgrass [16]): 90%

Structure (SMILES): CC(C)N(C(=O)n1ncn(S(=O)(=O)C(C)C)c1=O)c1cccnc1F [Compound 1-90]
- weed suppression rate, Echinochloa crus-galli (Echinochloa crus-galli [1]): 100%
- weed suppression rate, Lindemia pyxidaria (Lindernia pyxidaria [2]): 90%
- weed suppression rate, Monochoria vaginalis (Monochoria vaginalis [3]): 80%
- weed suppression rate, Scirpus juncoides (Scirpus juncoides [4]): 90%
- weed suppression rate, Echinochloa crus-galli (Echinochloa crus-galli [5]): 100%
- weed suppression rate, Lindemia pyxidaria (Lindernia pyxidaria [6]): 90%
- weed suppression rate, Monochoria vaginalis (Monochoria vaginalis [7]): 90%
- weed suppression rate, Scirpus juncoides (Scirpus juncoides [8]): 90%
- herbicidal effect (weed suppression rate), Amaranthus viridis (Amaranthus viridis [9]): 90%
- herbicidal effect (weed suppression rate), Chenopodium album (Chenopodium album [10]): 90%
- herbicidal effect (weed suppression rate), Echinochloa crus-galli (Echinochloa crus-galli [11]): 100%
- herbicidal effect (weed suppression rate), Crabgrass (crabgrass [12]): 100%
- herbicidal effect (weed suppression rate), Amaranthus viridis (Amaranthus viridis [13]): 50%
- herbicidal effect (weed suppression rate), Chenopodium album (Chenopodium album [14]): 70%
- herbicidal effect (weed suppression rate), Echinochloa crus-galli (Echinochloa crus-galli [15]): 90%
- herbicidal effect (weed suppression rate), Crabgrass (crabgrass [16]): 90%

Structure (SMILES): CC(C)N(C(=O)n1ncn(S(=O)(=O)C2CCCCC2)c1=O)c1c(F)cccc1F [Compound 1-308]
- weed suppression rate, Echinochloa crus-galli (Echinochloa crus-galli [1]): 100%
- weed suppression rate, Lindemia pyxidaria (Lindernia pyxidaria [2]): 100%
- weed suppression rate, Monochoria vaginalis (Monochoria vaginalis [3]): 80%
- weed suppression rate, Scirpus juncoides (Scirpus juncoides [4]): 100%
- weed suppression rate, Echinochloa crus-galli (Echinochloa crus-galli [5]): 100%
- weed suppression rate, Lindemia pyxidaria (Lindernia pyxidaria [6]): 90%
- weed suppression rate, Monochoria vaginalis (Monochoria vaginalis [7]): 100%
- weed suppression rate, Scirpus juncoides (Scirpus juncoides [8]): 100%
- herbicidal effect (weed suppression rate), Amaranthus viridis (Amaranthus viridis [9]): 40%
- herbicidal effect (weed suppression rate), Chenopodium album (Chenopodium album [10]): 40%
- herbicidal effect (weed suppression rate), Echinochloa crus-galli (Echinochloa crus-galli [11]): 90%
- herbicidal effect (weed suppression rate), Crabgrass (crabgrass [12]): 90%
- herbicidal effect (weed suppression rate), Amaranthus viridis (Amaranthus viridis [13]): 60%
- herbicidal effect (weed suppression rate), Chenopodium album (Chenopodium album [14]): 40%
- herbicidal effect (weed suppression rate), Echinochloa crus-galli (Echinochloa crus-galli [15]): 90%
- herbicidal effect (weed suppression rate), Crabgrass (crabgrass [16]): 90%

Structure (SMILES): CC(C)N(C(=O)n1ncn(S(=O)(=O)C2CCCCC2)c1=O)c1cccc(F)c1F [Compound 1-305]
- weed suppression rate, Echinochloa crus-galli (Echinochloa crus-galli [1]): 100%
- weed suppression rate, Lindemia pyxidaria (Lindernia pyxidaria [2]): 100%
- weed suppression rate, Monochoria vaginalis (Monochoria vaginalis [3]): 100%
- weed suppression rate, Scirpus juncoides (Scirpus juncoides [4]): 100%
- weed suppression rate, Echinochloa crus-galli (Echinochloa crus-galli [5]): 100%
- weed suppression rate, Lindemia pyxidaria (Lindernia pyxidaria [6]): 100%
- weed suppression rate, Monochoria vaginalis (Monochoria vaginalis [7]): 100%
- weed suppression rate, Scirpus juncoides (Scirpus juncoides [8]): 100%
- herbicidal effect (weed suppression rate), Amaranthus viridis (Amaranthus viridis [9]): 80%
- herbicidal effect (weed suppression rate), Chenopodium album (Chenopodium album [10]): 80%
- herbicidal effect (weed suppression rate), Echinochloa crus-galli (Echinochloa crus-galli [11]): 100%
- herbicidal effect (weed suppression rate), Crabgrass (crabgrass [12]): 100%
- herbicidal effect (weed suppression rate), Amaranthus viridis (Amaranthus viridis [13]): 80%
- herbicidal effect (weed suppression rate), Chenopodium album (Chenopodium album [14]): 80%
- herbicidal effect (weed suppression rate), Echinochloa crus-galli (Echinochloa crus-galli [15]): 90%
- herbicidal effect (weed suppression rate), Crabgrass (crabgrass [16]): 100%

Structure (SMILES): CC(C)N(C(=O)n1ncn(S(=O)(=O)C2CCCC2)c1=O)c1ccc(F)cc1F [Compound 1-284]
- weed suppression rate, Echinochloa crus-galli (Echinochloa crus-galli [1]): 100%
- weed suppression rate, Lindemia pyxidaria (Lindernia pyxidaria [2]): 100%
- weed suppression rate, Monochoria vaginalis (Monochoria vaginalis [3]): 100%
- weed suppression rate, Scirpus juncoides (Scirpus juncoides [4]): 100%
- weed suppression rate, Echinochloa crus-galli (Echinochloa crus-galli [5]): 90%
- weed suppression rate, Lindemia pyxidaria (Lindernia pyxidaria [6]): 90%
- weed suppression rate, Monochoria vaginalis (Monochoria vaginalis [7]): 90%
- weed suppression rate, Scirpus juncoides (Scirpus juncoides [8]): 90%
- herbicidal effect (weed suppression rate), Amaranthus viridis (Amaranthus viridis [9]): 60%
- herbicidal effect (weed suppression rate), Chenopodium album (Chenopodium album [10]): 90%
- herbicidal effect (weed suppression rate), Echinochloa crus-galli (Echinochloa crus-galli [11]): 90%
- herbicidal effect (weed suppression rate), Crabgrass (crabgrass [12]): 90%
- herbicidal effect (weed suppression rate), Amaranthus viridis (Amaranthus viridis [13]): 90%
- herbicidal effect (weed suppression rate), Chenopodium album (Chenopodium album [14]): 80%
- herbicidal effect (weed suppression rate), Echinochloa crus-galli (Echinochloa crus-galli [15]): 80%
- herbicidal effect (weed suppression rate), Crabgrass (crabgrass [16]): 90%
